According to patent US20140162980A1, “NOVEL MICROBIOCIDAL DIOXIME ETHER DERIVATIVES” (SYNGENTA CROP PROTECTION LLC, priority 2010, published 2014):

How the values were obtained:
[1] = test system: Botryotinia fuckeliana (Botrytis cinerea); assay: Botryotinia fuckeliana (Botrytis cinerea) / liquid culture (gray mould); assay type: cell-based; details: Vogels broth, 24° C., 3-4 days after application, read-out: control of Botryotinia fuckeliana (inhibition of growth, photometrically)
Method: Botryotinia Fuckeliana (Botrytis cinerea)/Liquid Culture (Gray Mould): Conidia of the fungus from cryogenic storage were directly mixed into nutrient broth (Vogels broth). After placing a DMSO solution of test compound into a 96-well microtiter plate at an application rate 200 ppm, the nutrient broth containing the fungal spores was added. The test plates were incubated at 24° C. and the inhibition of growth was determined photometrically 3-4 days after application.

[2] = test system: Puccinia recondita f. sp. tritici; assay: Puccinia recondita f. sp. tritici / wheat / leaf disc curative (brown rust); assay type: in vivo; details: foliar, 200 ppm applied 1 day after inoculation, wheat leaf segments cv Kanzler, assessed 6-8 days after application, read-out: control of Puccinia recondita f. sp. tritici, curative (percent disease control compared to untreated)
Method: Puccinia Recondita f. Sp. Tritici/Wheat/Leaf Disc Curative (Brown Rust): Wheat leaf segments cv Kanzler were placed on agar in 24-well plates. The leaf segments were inoculated with a spore suspension of the fungus. The plates were stored in darkness at 19° C. and 75% relative humidity. The formulated test compound diluted in water was applied at an application rate of 200 ppm 1 day after inoculation.

Pyrenophora teres = Pyrenophora teres / barley / leaf disc preventative (net blotch); assay type: in vivo; details: foliar, barley leaf segments cv Hasso, inoculated two days after application, assessed 5-7 days after application, read-out: control of Pyrenophora teres (disease control compared to untreated)
Method: Pyrenophora Teres/Barley/Leaf Disc Preventative (Net Blotch): Barley leaf segments cv Hasso are placed on agar in a 24-well plate and sprayed with formulated test compound diluted in water at an application rate of 200 ppm. The leaf segments are inoculated with a spore suspension of the fungus two days after application of the test solution. The inoculated leaf segments are incubated at 20° C. and 65% relative humidity under a light regime of 12/12 h (light/dark) in a climate cabinet and the activity of a compound is assessed as disease control compared to untreated when an appropriate level of disease damage appears in untreated check leaf segments (5-7 days after application).

[3] = test system: Blumeria graminis f. sp. tritici (Erysiphe graminis f. sp. tritici); assay: Blumeria graminis f. sp. tritici / wheat / leaf disc preventative (powdery mildew on wheat); assay type: in vivo; details: foliar, wheat leaf segments cv. Kanzler, inoculated 1 day after application, assessed 6-8 days after application, read-out: control of Blumeria graminis (percent disease control compared to untreated)
Method: Blumeria Graminis f. Sp. Tritici (Erysiphe Graminis f. Sp. Tritici)/Wheat/Leaf Disc Preventative (Powdery Mildew on Wheat):
Wheat leaf segments cv. Kanzler were placed on agar in a 24-well plate and sprayed with the formulated test compound diluted in water at an application rate of 200 ppm. The leaf disks were inoculated by shaking powdery mildew infected plants above the test plates 1 day after application. The inoculated leaf disks were incubated at 20° C. and 60% relative humidity under a light regime of 24 h darkness followed by 12 h/12 h (dark/light) in a climate chamber and the activity of a compound was assessed as percent disease control compared to untreated when an appropriate level of disease damage appears on untreated check leaf segments (6-8 days after application). The following compounds gave at least 80% control of Blumeria graminis: […]

Pythium ultimum = Pythium ultimum / liquid culture (seedling damping off); assay type: cell-based; details: Globisporangium ultimum, PDB potato dextrose broth, 24° C., 2-3 days after application, read-out: control of Pythium ultimum (inhibition of growth, photometrically)
Method: Pythium Ultimum/Liquid Culture (Seedling Damping Off): Mycelia fragments and oospores of a newly grown liquid culture of the fungus were directly mixed into nutrient broth (PDB potato dextrose broth). After placing a DMSO solution of test compound into a 96 well microtiter plate at an application rate 200 ppm, the nutrient broth containing the fungal mycelia/spore mixture was added. The test plates were incubated at 24° C. and the inhibition of growth was determined photometrically 2-3 days after application.

[4] = test system: Phaeosphaeria nodorum (Septoria nodorum); assay: Phaeosphaeria nodorum (Septoria nodorum) / wheat / leaf disc preventative (glume blotch); assay type: in vivo; details: Parastagonospora nodorum, foliar, wheat leaf segments cv Kanzler, inoculated 2 days after application, assessed 5-7 days after application, read-out: control of Phaeosphaeria nodorum (percent disease control compared to untreated)
Method: Phaeosphaeria Nodorum (Septoria nodorum)/Wheat/Leaf Disc Preventative (Glume Blotch): Wheat leaf segments cv Kanzler were placed on agar in a 24-well plate and sprayed with formulated test compound diluted in water at an application rate of 200 ppm. The leaf disks are inoculated with a spore suspension of the fungus 2 days after application. The inoculated test leaf disks are incubated at 20° C. and 75% relative humidity under a light regime of 12/12 h (light/dark) in a climate cabinet and the activity of a compound is assessed as percent disease control compared to untreated when an appropriate level of disease damage appears in untreated check leaf disks (5-7 days after application).

[5] = test system: Puccinia recondita f. sp. tritici; assay: Puccinia recondita f. sp. tritici / wheat / leaf disc preventative (brown rust); assay type: in vivo; details: foliar, wheat leaf segments cv Kanzler, inoculated 1 day after application, assessed 7-9 days after application, read-out: control of Puccinia recondita f. sp. tritici, preventative (percent disease control compared to untreated)
Method: Puccinia Recondita f. Sp. Tritici/Wheat/Leaf Disc Preventative (Brown Rust): Wheat leaf segments cultivated variety (cv) Kanzler were placed on agar in 24-well plates and sprayed with formulated test compound diluted in water at an application rate of 200 ppm. The leaf disks were inoculated with a spore suspension of the fungus 1 day after application. The inoculated leaf segments were incubated at 19° C. and 75% relative humidity under a light regime of 12/12 h (light/dark) in a climate cabinet and the activity of a compound was assessed as percent disease control compared to untreated when an appropriate level of disease damage appears in untreated check leaf segments (7-9 days after application).

[6] = test system: Thanatephorus cucumeris (Rhizoctonia solani); assay: Thanatephorus cucumeris (Rhizoctonia solani) / liquid culture (foot rot, damping-off); assay type: cell-based; details: PDB potato dextrose broth, 24° C., 3-4 days after application, read-out: control of Thanatephorus cucumeris (inhibition of growth, photometrically)
Method: Thanatephorus Cucumeris (Rhizoctonia solani)/Liquid Culture (Foot Rot, Damping-Off): Mycelia fragments of a newly grown liquid culture of the fungus are directly mixed into nutrient broth (PDB potato dextrose broth). After placing a DMSO solution of the test compounds into a 96-well microtiter plate at an application rate 200 ppm, the nutrient broth containing the fungal material was added. The test plates were incubated at 24° C. and the inhibition of growth was determined photometrically 3-4 days after application.

[7] = test system: Magnaporthe grisea (Pyricularia oryzae); assay: whole plant or invertebrate; assay type: in vivo; details: foliar, read-out: control of Magnaporthe grisea (percent disease control compared to untreated)

Cc1ccc2c(n1)/C(=N/OCC(C)(C)CO/N=C1\CCc3ccc(Cl)nc31)CCC2 [P.01]
≥ 80%: inhibition at 200 ppm [1]

Cc1ccc2c(n1)/C(=N/OCC1(CO/N=C3\CCCc4ccc(C)nc43)CC1)CCC2 [P.03]
≥ 80%: pest or weed control at 200 ppm [2] | pest or weed control at 200 ppm (Pyrenophora teres) | pest or weed control at 200 ppm [3] | inhibition at 200 ppm (Pythium ultimum) | pest or weed control at 200 ppm [4] | pest or weed control at 200 ppm [5] | inhibition at 200 ppm [1]

Cc1ccc2c(n1)/C(=N/OCC(C)(C)CO/N=C1\CCc3ccc(C)nc31)CCC2 [P.08]
≥ 80%: pest or weed control at 200 ppm [3] | inhibition at 200 ppm [1]

Cc1ccc2c(n1)/C(=N/OCC(O)CO/N=C1\CCCc3ccc(C)nc31)CCC2 (stereo not shown) [P.11]
≥ 80%: pest or weed control at 200 ppm [2] | pest or weed control at 200 ppm (Pyrenophora teres) | pest or weed control at 200 ppm [4] | pest or weed control at 200 ppm [5]

Cc1cc(Cl)c2c(n1)/C(=N/OCC1(CO/N=C3\CCCc4c(Cl)cc(C)nc43)CC1)CCC2 [P.12]
≥ 80%: inhibition at 200 ppm [1] | inhibition at 200 ppm [6]

Cc1ccc2c(n1)/C(=N/OCC(F)CO/N=C1\CCCc3ccc(C)nc31)CCC2 (stereo not shown) [P.14]
≥ 80%: pest or weed control at 200 ppm [2] | pest or weed control at 200 ppm [3] | inhibition at 200 ppm (Pythium ultimum) | pest or weed control at 200 ppm [4] | pest or weed control at 200 ppm [5] | inhibition at 200 ppm [1]

Cc1ccc2c(n1)/C(=N/OCC(C)(C)CO/N=C1\CC(C)Cc3ccc(-c4ccc(Cl)cc4)nc31)CCC2 (stereo not shown) [P.22]
≥ 80%: pest or weed control at 200 ppm [4] | inhibition at 200 ppm [1]

Cc1ccc2c(n1)/C(=N/OCC(Cl)CO/N=C1\CCCc3ccc(C)nc31)CCC2 (stereo not shown) [P.24]
≥ 80%: pest or weed control at 200 ppm [2] | pest or weed control at 200 ppm (Pyrenophora teres) | pest or weed control at 200 ppm [3] | inhibition at 200 ppm (Pythium ultimum) | pest or weed control at 200 ppm [4] | pest or weed control at 200 ppm [5] | inhibition at 200 ppm [1]

Cc1c2c(nc3ccccc13)/C(=N/OCCCO/N=C1\CCCc3c1nc1ccccc1c3C)CCC2 [P.25]
≥ 80%: pest or weed control at 200 ppm (Pyrenophora teres) | pest or weed control at 200 ppm [3] | pest or weed control at 200 ppm [4] | pest or weed control at 200 ppm [5] | inhibition at 200 ppm [1]

Cc1c2c(nc3ccccc13)/C(=N/OCC1(CO/N=C3\CCCc4c3nc3ccccc3c4C)CC1)CCC2 [P.27]
≥ 80%: pest or weed control at 200 ppm (Pyrenophora teres) | pest or weed control at 200 ppm [3] | pest or weed control at 200 ppm [4] | inhibition at 200 ppm [1]

Cc1c2c(nc3ccccc13)/C(=N/OCC(C)(C)CO/N=C1\CCCc3c1nc1ccccc1c3C)CCC2 [P.28]
≥ 80%: pest or weed control at 200 ppm (Pyrenophora teres) | pest or weed control at 200 ppm [3] | pest or weed control at 200 ppm [4] | inhibition at 200 ppm [1]

Cc1cc(CF)nc2c1CCC/C2=N\OCC(C)(C)CO/N=C1\CCCc2c(C)cc(CF)nc21 [P.34]
≥ 80%: pest or weed control at 200 ppm [2] | pest or weed control at 200 ppm [7] | pest or weed control at 200 ppm (Pyrenophora teres) | pest or weed control at 200 ppm [4] | inhibition at 200 ppm [1]

FCc1ccnc2c1CCC/C2=N\OCCCO/N=C1\CCCc2c(CF)ccnc21 [P.36]
≥ 80%: inhibition at 200 ppm [1]

Cc1ccc2c(n1)/C(=N/OCC(C)(C)CO/N=C1\CCCc3c(N4CCCC4)cc(C)nc31)CCC2 [P.41]
≥ 80%: pest or weed control at 200 ppm (Pyrenophora teres) | pest or weed control at 200 ppm [3] | pest or weed control at 200 ppm [4] | inhibition at 200 ppm [1] | inhibition at 200 ppm [6]

COCc1cc(C)c2c(n1)/C(=N/OCC(C)(C)CO/N=C1\CCCc3ccc(C)nc31)CCC2 [P.42]
≥ 80%: pest or weed control at 200 ppm [2] | pest or weed control at 200 ppm [7] | pest or weed control at 200 ppm (Pyrenophora teres) | pest or weed control at 200 ppm [3] | inhibition at 200 ppm (Pythium ultimum) | pest or weed control at 200 ppm [4] | pest or weed control at 200 ppm [5] | inhibition at 200 ppm [1]

CSc1cc(C)nc2c1CCC/C2=N\OCCCO/N=C1\CCCc2c(SC)cc(C)nc21 [P.43]
≥ 80%: inhibition at 200 ppm [1]

Cc1cc(C(F)F)c2c(n1)/C(=N/OCC1(CO/N=C3\CCCc4c(C(F)F)cc(C)nc43)CC1)CCC2 [P.45]
≥ 80%: pest or weed control at 200 ppm [2] | pest or weed control at 200 ppm [7] | pest or weed control at 200 ppm (Pyrenophora teres) | pest or weed control at 200 ppm [3] | pest or weed control at 200 ppm [4] | pest or weed control at 200 ppm [5] | inhibition at 200 ppm [1]

Cc1ccc2c(n1)/C(=N/OCCCO/N=C1\CCCc3ccc(C(F)(F)F)nc31)CCC2 [P.47]
≥ 80%: pest or weed control at 200 ppm [2] | pest or weed control at 200 ppm (Pyrenophora teres) | pest or weed control at 200 ppm [3] | pest or weed control at 200 ppm [4] | pest or weed control at 200 ppm [5] | inhibition at 200 ppm [1]

Cc1cc(CF)c2c(n1)/C(=N/OCCCO/N=C1\CCCc3c(CF)cc(C)nc31)CCC2 [P.48]
≥ 80%: pest or weed control at 200 ppm [2] | pest or weed control at 200 ppm [7] | pest or weed control at 200 ppm (Pyrenophora teres) | pest or weed control at 200 ppm [3] | inhibition at 200 ppm (Pythium ultimum) | pest or weed control at 200 ppm [4] | pest or weed control at 200 ppm [5] | inhibition at 200 ppm [1]
